Measurements taken from patent US9351944B1, “Malodor eliminating compositions” (TAKASAGO INTERNATIONAL CORPORATION, priority 2008, dated 2016).
Values joined by “and” are separate entries in the source; they are usually repeats but may differ in a detail not shown here. Equal entries are not always repeated.

Experiments:
[1] = Methyl mercaptan chemical suppression by Group A and Group B compounds (GC-PFPD); conditions: test material 200 ppm, malodor material 10 ppm, room temperature 2 hours, ethanol/deionized water
Protocol: 2 μl of 0.5%(w/v) of sodium methoxide in deionized water, 20 μl of 1% (w/v) test malodor eliminating material in ethanol, 80 μl of ethanol, and 900 μl of deionized water were added into a 2 ml GC vial, left to sit at room temperature for 2 hours, and analyzed using Multipurpose sampler-GC-PFPD (Gas Chromatography-Pulsed Flame Photometric Detector) (GC-PFPD)MPS2 (Gerstel)—GC; 6890N (Agilent)—PFPD; model 5380 (OI Analytical). As a control, ethanol was added instead of test malodor eliminating materials. The final concentration of test OE material and malodor material are 200 ppm and 10 ppmm, respectively. Malodor suppression was calculated as follows: Malodor Suppression (%)=(GC area of control sample−GC area of test_sample)/GC area of control sample×100

[2] = Suppression of methyl mercaptan (Example 12, GC-PFPD); conditions: test material 0.2%, malodor material 10 ppm, room temperature 2 hours, triplicate
Protocol: 100 μl of 0.01%(w/v) of test malodor material in ethanol, 2 μl of neat flavor oil and 900 μl of deionized water were added into a 4 ml vial and left to sit at room temperature for 2 hours. As a control, ethanol was added instead of the malodor reducing compound. The final concentration of test material and malodor material are 0.2% and 10 ppmm, respectively. 3 ml of ethanol was added into the resulting vial and the thiol level was analyzed using GC-PFPD as described above. Each material was tested in triplicate. Malodor suppression was calculated as described in the example 1 above.

[3] = Allyl mercaptan chemical suppression by malodor eliminating materials (GC-PFPD); conditions: OE material 0.2%, malodor material 10 ppm, room temperature 2 hours, triplicate
Protocol: (§1) The selected OE materials were tested for propyl, allyl, and furfuryl mercaptan suppression. 100 μl of 0.01%(w/v) of test malodor material in ethanol, 2 μl of neat flavor oil and 900 μl of deionized water were added into a 4 ml vial and left to sit at room temperature for 2 hours. As a control, ethanol was added instead of test flavor materials. The final concentration of test OE material and malodor material are 0.2% and 10 ppm, respectively. 3 ml of ethanol was added into the resulting vial and the thiol level was analyzed using GC-PFPD. Each material was tested in triplicate. Malodor suppression was calculated as described in the example 1 above.

[4] = Furfuryl mercaptan chemical suppression by malodor eliminating materials (GC-PFPD); conditions: OE material 0.2%, malodor material 10 ppm, room temperature 2 hours, triplicate
Protocol: as §1

[5] = Propyl mercaptan chemical suppression by malodor eliminating materials (GC-PFPD); conditions: OE material 0.2%, malodor material 10 ppm, room temperature 2 hours, triplicate
Protocol: as §1

[6] = Methyl mercaptan suppression by Group A and Group B materials alone and combined (synergistic or additive activity); conditions: in ethanol, room temperature 2 hours; for methyl mercaptan suppression (%) B alone: Group B level 400 ppm
Protocol: The synergistic or additive activity of methyl mercaptan inhibition of malodor eliminating materials was tested. 5-40 μl of 1% (w/v) test OE materials in ethanol was placed into a 2 ml GC vial. Ethanol was added into this vial up to 1000 μl. 2 μl of 0.5%(w/v) of sodium methoxide in deionized water was added into the resulting vial, left to sit at room temperature for 2 hours, and analyzed using Multipurpose sampler-GC-PFPD. As a control, ethanol was added instead of test OE materials. Malodor suppression was calculated as described in Example 1 above.

Molecule	methyl mercaptan suppression (%) [1] [%]	methyl mercaptan suppression (%) [2] [%]	further results
C=CC(O)CCCCC (stereo not shown) [OCTEN-1 3-OL]	19	–	–
CCCCCCCCC/C=C/C=O [DODECENAL, TRANS-2,]	53	–	–
O=C/C=C/c1ccccc1 [CINN ALD, cinnamic aldehyde]	33	26	Malodor reduction (%) allyl mercaptan [3]: <20%; Malodor reduction (%) furfuryl mercaptan [4]: 27%; Malodor reduction (%) propyl mercaptan [5]: 26%
C=CCc1ccc(O)c(OC)c1 [EUGENOL, eugenol]	46	78	Malodor reduction (%) allyl mercaptan [3]: 63%; methyl mercaptan suppression (%) B alone [6]: 12% and 14% and 15% and 16%; Malodor reduction (%) furfuryl mercaptan [4]: 80%; Malodor reduction (%) propyl mercaptan [5]: 44%
CCC/C=C/C=O [HEXENAL, TRANS-2,, trans-2-hexenal]	82	–	methyl mercaptan suppression (%) A alone ([6]; Group A level 200 ppm, TRANS-2): 33%
CC(=O)c1ccccc1 [ACETOPHENONE, acetophenone]	–	–	methyl mercaptan suppression (%) A alone ([6]; Group A level 200 ppm): 4%
piperitone-d [[…]]	37	45	Malodor reduction (%) allyl mercaptan [3]: 51%; methyl mercaptan suppression (%) A alone ([6]; Group A level 200 ppm): 8%; methyl mercaptan suppression (%) A alone ([6]; Group A level 200 ppm, listed as PIPERITONED): 12%; Malodor reduction (%) furfuryl mercaptan [4]: 64%; Malodor reduction (%) propyl mercaptan [5]: <20%
CCCCCC#CC(=O)OC [METHYL HEPTIN CARE, methyl heptin carbonate]	92	80	Malodor reduction (%) allyl mercaptan [3]: 63%; methyl mercaptan suppression (%) A alone ([6]; Group A level 50 ppm, listed as METHYL HEP CARB): 67% and 53%; Malodor reduction (%) furfuryl mercaptan [4]: 69%; Malodor reduction (%) propyl mercaptan [5]: 44%
C/C=C/C(=O)OCC [ETHYL-TRANS-2 BUTENOATE, ethyl-trans-2-butenoate]	73	–	methyl mercaptan suppression (%) A alone ([6]; Group A level 200 ppm): 64%
CCCCCCCC1CCCC(=O)O1 (stereo not shown) [DODECALACTONE DELTA, dodecalactone delta]	–	<20	–
CCC(=O)OCCc1ccccc1 [PHENYLETHYL PROPIONATE, phenyl ethyl propionate]	–	<20	–
CC1CCC(C(C)C)C(O)C1 (stereo not shown) [MENTHOL NATURAL, menthol]	–	<20	–
CC/C=C\CCOC(=O)CC [HEXENYL PROP, CIS-3,]	32	–	–
CC=Cc1ccc(OC)cc1 [ANETHOL NF, anethol]	–	<20	–
CCCCC/C=C/C=O [OCTENAL TRANS-2]	82	–	–
CC/C=C\CCOC(=O)CC(C)C [HEXENYL ISO VAL, CIS-3,]	24	–	–
damascone beta [DAMASCONE, BETA]	99	74	Malodor reduction (%) allyl mercaptan [3]: 85%; Malodor reduction (%) furfuryl mercaptan [4]: 47%; Malodor reduction (%) propyl mercaptan [5]: 23%
CC(C)=CCCC(C)C=O (stereo not shown) [MELONAL]	–	<20	–
CCCCCCCC(C)=O [METHYL HEPTYL KETONE]	–	<20	–

Molecule	methyl mercaptan suppression (%) [1] [%]	methyl mercaptan suppression (%) [2] [%]	further results
COC(=O)C=Cc1ccccc1 [METH CINNAMATE, methyl cinnamate]	36	–	–
COC(=O)c1ccccc1O [METHYL SALICYLATE EXT PURE, METHYL SALICYLATE]	–	<20	–
CC/C=C/C=C/C=O [HEPTADIENAL, TRANS-2-TRANS-4]	44	–	–
CC(=O)/C=C/C1C(C)=CCCC1(C)C (stereo not drawn) [IONONE-ALPHA, ionone alpha]	14	50	Malodor reduction (%) allyl mercaptan [3]: 43%; Malodor reduction (%) furfuryl mercaptan [4]: 46%; Malodor reduction (%) propyl mercaptan [5]: <20%
CCCCCC=CCC(=O)OC [METHYL-3 -NONENOATE, METHYL-3-NONENOATE]	36	–	methyl mercaptan suppression (%) A alone ([6]; Group A level 200 ppm): 7%
CCOC(=O)C(C)CC (stereo not shown) [ETHYL 2-METHYLBUTYRATE, ethyl 2-methylbutyrate]	–	<20	–
CC(O)CO (stereo not shown) [PROPYLENE GLYCOL (SOLVENT), propylene glycol]	–	–	methyl mercaptan suppression (%) B alone [6]: −5%
CC/C=C\CC1=C(C)CCC1=O [JASMONE, CIS]	32	–	–
CCOC(C)=O [ETHYL ACETATE, ethyl acetate]	–	<20	–
CC(=O)/C=C/C=C(C)C [METHYL HEPTADIENONE, methyl heptadienone]	–	–	methyl mercaptan suppression (%) A alone ([6]; Group A level 200 ppm): 12% and 6% and 8% and 15%
Cc1ccc(C(C)C)c(O)c1 [THYMOL, thymol]	–	–	methyl mercaptan suppression (%) B alone [6]: 0%
ISO JASMONE	31	–	–
CC(C)CCOC(=O)C=Cc1ccccc1 [ISOAMYL CINNAMATE]	10	–	–
CC(C)=CCCC(C)=CC=O [CITRAL SYN REFINED (FDO), CITRAL]	25	–	methyl mercaptan suppression (%) A alone ([6]; Group A level 200 ppm): 1% and 0%
CC/C=C\CCOC(=O)CCC [HEXENYL BUTY, CIS-3,]	22	–	–
CC/C=C\CC/C=C/C=O [NONADIEN-1-AL, TRANS-2, CIS-6,]	74	–	–
O=C1CCCCCCCCCCCCCCO1 [CYCLOPENTADECANOLIDE, cyclopentadecanolide]	–	<20	–
CC1=CC(=O)CC(C)(C)C1 [ISOPHORONE]	31	–	–
CC(=O)/C=C/C1=C(C)CCCC1(C)C [IONONE-BETA, ionone beta]	23	55	Malodor reduction (%) allyl mercaptan [3]: 37%; methyl mercaptan suppression (%) A alone ([6]; Group A level 200 ppm): 71%; Malodor reduction (%) furfuryl mercaptan [4]: 51%; Malodor reduction (%) propyl mercaptan [5]: 27%

Molecule	methyl mercaptan suppression (%) [1] [%]	methyl mercaptan suppression (%) [2] [%]	further results
CC(=O)OC1CC(C)CCC1C(C)C (stereo not shown) [MENTHYL ACETATE]	–	<20	–
C=C(C)C1CC=C(C=O)CC1 (stereo not shown) [PERILLA ALD]	12	–	methyl mercaptan suppression (%) A alone ([6]; Group A level 200 ppm): 16%
CCCCCC1CCCC(=O)O1 (stereo not shown) [DECALACTONE DELTA]	–	<20	–
CCOC(=O)C=Cc1ccccc1 [ETH CINNNAMTE, ethyl cinnamate]	50	–	methyl mercaptan suppression (%) A alone ([6]; Group A level 200 ppm): 12% and 8%
CC(C)OC(=O)C=Cc1ccccc1 [ISOPROPYL CINNAMATE]	21	–	–
CCC/C=C/COC(C)=O [HEXENYL-TRANS-2 ACETATE]	35	–	–
CCC/C=C/CO [HEXENOL, TRANS-2-, trans-2-hexenol]	29	–	–
CCCC/C=C/C=O [HEPTENAL-TRANS-2]	82	–	–
CC=Cc1ccc(O)c(OC)c1 [ISOEUGENOL, isoeugenol]	15	–	–
CCCCC/C(C=O)=C/c1ccccc1 [AMYL CINN ALD, ALPHA]	5	–	methyl mercaptan suppression (%) A alone ([6]; Group A level 200 ppm): −3% and −1%
C/C=C(\C)C(=O)OCCc1ccccc1 [PHEN ETH TIGLATE]	–	–	methyl mercaptan suppression (%) A alone ([6]; Group A level 200 ppm): 4%
CCCCCCC/C=C/C=O [DECENAL, TRANS-2,]	90	–	–
CCCC(=O)OCC [ETHYL BUTYRATE, ethyl butyrate]	–	<20	–
CC(C)c1ccc(C=O)cc1 [CUMIN ALD, cumin aldehyde]	–	–	methyl mercaptan suppression (%) A alone ([6]; Group A level 200 ppm): −42%
OCCc1ccccc1 [PHENYL ETHYL ALCOHOL-BETA, phenethyl alcohol beta]	–	<20	–
CCCCCC/C=C/C=O [NONENAL, TRANS-2,]	86	–	–
CC(C)CC=C(C=O)c1ccccc1 [METH 2-PHEN 2-HEXENAL, 5,]	59	–	–
CCCC/C=C/C=C/C=O [NONADIENAL-TRANS-2-TRANS-4, trans-2-trans-4-nonadien-1-al]	42	–	–
CC/C=C\CCCCCO [NONENOL, CIS 6]	22	–	–
